# Assay results published in publication PMC3973950, “Synthesis of 5-arylidine amino-1,3,4-thiadiazol-2-[(N-substituted benzyol)]sulphonamides endowed with potent antioxidants and anticancer activity induces growth inhibition in HEK293, BT474 and NCI-H226 cells” (Medicinal Chemistry Research, 2013).
# Experiments:
# [1] = In vitro cytotoxicity by MTT assay, HEK 293; assay type: cell-based, human; conditions: human, HEK 293 cells, read-out: % cytotoxicity (100 − % cell survival) of HEK 293 cell line
# Experimental: (§1) The cancer cell line cultures of HEK 293 ([…]), BT474 (breast cancer cell line) and NCI-H226 (lung cancer) were obtained from Pasteur Institute of India, Coonoor, India, and were cultured in RPMI-1640 and 10 % heat-[…] New born calf serum with antibiotics [penicillin ([…]), streptomycin (100 μg/mL) and amphotericin B (25 μg/mL)]. The cells were maintained at 37 °C in a humidified atmosphere with 5 % CO2 and were subcultured twice a week.
# (§2) The monolayer cell culture (100 μL) was trypsinized, and the cell count was adjusted to […] using medium containing 10 % new born calf serum. To each well of the 96-well microtitre plate, the diluted cell suspension (approximately 10,000 cells) (0.1 mL) was added and kept for 24 h in incubator at 37 °C in 5 % CO2 atmosphere for cell monolayer formation. After 24 h, when a partial monolayer was formed at the bottom of the well, the supernatant was flicked off, the monolayer was washed once, and different drugs, i.e. synthesized compounds (100 μL), were added to the cells in microtitre plates. The plates were then incubated at 37 °C for 3 days in 5 % CO2 atmosphere, and microscopic examination was carried out and observations recorded every 24 h. After 72 h, the sample solution in the wells was flicked off; MTT dye ([…]) was added to each well; plates were gently shaken and incubated for 4 h at 37 °C in 5 % CO2 incubator. The supernatant was removed and propanol (50 μL) was added; the plates were gently shaken to solubilize the formed formazan. The absorbance was measured using a microplate reader at a wavelength of 490 nm (Edmondson et al., [1988]; Prasad et al., [2005]; Chiruvella et al., [2008]; Chang et al., [2007]).
# [2] = system: NCI-H226 (lung cancer cell line); assay: In vitro cytotoxicity by MTT assay, NCI-H226; assay type: cell-based; conditions: Homo sapiens, 72 h, read-out: % Cytotoxicity (100 − % cell survival) of NCI-H226 cell line; for cytotoxicity at 0.005 µM: NCI-H226, 0.005 μM; for cytotoxicity at 0.045 µM: NCI-H226, 0.045 μM; for cytotoxicity at 0.13 µM: NCI-H226, 0.13 μM; for cytotoxicity at 0.41 µM: NCI-H226, 0.41 μM; for cytotoxicity at 1.23 µM: NCI-H226, 1.23 μM; for cytotoxicity at 3.7 µM: NCI-H226, 3.7 μM; for cytotoxicity at 11.11 µM: NCI-H226, 11.11 μM; for cytotoxicity at 33.33 µM: NCI-H226, 33.33 μM; for cytotoxicity at 100 µM: NCI-H226, 100 μM
# Experimental: as §1, §2
# [3] = In vitro cytotoxicity by MTT assay, NCI-H226; assay type: cell-based; conditions: human, NCI-H226 lung cancer cells, 0.015 μM, read-out: % Cytotoxicity (100 − % cell survival) of NCI-H226 cell line
# Experimental: as §1, §2
# [4] = system: BT474 (breast cancer cell line); assay: In vitro cytotoxicity by MTT assay, BT474; assay type: cell-based; conditions: Homo sapiens, 72 h, read-out: % cytotoxicity (100 − % cell survival) of BT474 cell line; for cytotoxicity at 0.005 µM: BT-474, 0.005 μM; for cytotoxicity at 0.015 µM: BT-474, 0.015 μM; for cytotoxicity at 0.045 µM: BT-474, 0.045 μM; for cytotoxicity at 0.13 µM: BT-474, 0.13 μM; for cytotoxicity at 0.41 µM: BT-474, 0.41 μM; for cytotoxicity at 1.23 µM: BT-474, 1.23 μM; for cytotoxicity at 3.7 µM: BT-474, 3.7 μM; for cytotoxicity at 11.11 µM: BT-474, 11.11 μM; for cytotoxicity at 33.33 µM: BT-474, 33.33 μM; for cytotoxicity at 100 µM: BT-474, 100 μM
# Experimental: as §1, §2
SMILES,"cytotoxicity at 72 h, 0.005 µM [1] [%]","cytotoxicity at 72 h, 0.015 µM [1] [%]","cytotoxicity at 72 h, 0.045 µM [1] [%]","cytotoxicity at 72 h, 0.13 µM [1] [%]","cytotoxicity at 72 h, 0.41 µM [1] [%]","cytotoxicity at 72 h, 1.23 µM [1] [%]","cytotoxicity at 72 h, 3.7 µM [1] [%]","cytotoxicity at 72 h, 11.11 µM [1] [%]","cytotoxicity at 72 h, 33.33 µM [1] [%]","cytotoxicity at 72 h, 100 µM [1] [%]",cytotoxicity at 0.005 µM [2] [%],cytotoxicity at 0.045 µM [2] [%],cytotoxicity at 0.13 µM [2] [%],cytotoxicity at 0.41 µM [2] [%],cytotoxicity at 1.23 µM [2] [%],cytotoxicity at 3.7 µM [2] [%],cytotoxicity at 11.11 µM [2] [%],cytotoxicity at 33.33 µM [2] [%],cytotoxicity at 100 µM [2] [%],"cytotoxicity at 72 h, 0.015 µM [3] [%]",also measured
Nc1nnc(S(=O)(=O)NC(=O)c2ccc([N+](=O)[O-])cc2)s1 [Compound 4e],30.6,31.6,34.1,34.8,35.4,37.1,38.9,39.1,40,40.2,27.3,28.9,29.6,29.9,30.6,31.3,32.2,33.3,34.6,28.1,cytotoxicity at 0.005 µM [4]: 30.9%; cytotoxicity at 0.015 µM [4]: 31%; cytotoxicity at 0.045 µM [4]: 31.8%; cytotoxicity at 0.13 µM [4]: 32.3%; cytotoxicity at 0.41 µM [4]: 33.1%; cytotoxicity at 1.23 µM [4]: 35.7%; cytotoxicity at 3.7 µM [4]: 37%; cytotoxicity at 11.11 µM [4]: 37.2%; cytotoxicity at 33.33 µM [4]: 38.9%; cytotoxicity at 100 µM [4]: 40.4%
Nc1ccc(C(=O)NS(=O)(=O)c2nnc(N)s2)cc1 [Compound 4c],36.3,37.9,38.2,39.1,39.9,40.7,42.1,46.5,47.8,49.1,37.6,38.9,39.3,42.2,45.4,47.2,49.1,51.2,54.2,38.2,cytotoxicity at 0.005 µM [4]: 30.6%; cytotoxicity at 0.015 µM [4]: 32.1%; cytotoxicity at 0.045 µM [4]: 34.2%; cytotoxicity at 0.13 µM [4]: 35.5%; cytotoxicity at 0.41 µM [4]: 36.3%; cytotoxicity at 1.23 µM [4]: 37.6%; cytotoxicity at 3.7 µM [4]: 38.8%; cytotoxicity at 11.11 µM [4]: 39.4%; cytotoxicity at 33.33 µM [4]: 40.3%; cytotoxicity at 100 µM [4]: 41.4%
Nc1nnc(S(=O)(=O)NC(=O)c2ccccc2O)s1 [Compound 4d],37.3,38.3,39.4,40.5,42.1,42.4,44.6,47,47.6,48.1,34.2,35.2,36.3,37.3,38,38.3,39.7,42.1,42.6,35.1,cytotoxicity at 0.005 µM [4]: 23.2%; cytotoxicity at 0.015 µM [4]: 24.2%; cytotoxicity at 0.045 µM [4]: 25.3%; cytotoxicity at 0.13 µM [4]: 26.2%; cytotoxicity at 0.41 µM [4]: 26.8%; cytotoxicity at 1.23 µM [4]: 27.1%; cytotoxicity at 3.7 µM [4]: 28.1%; cytotoxicity at 11.11 µM [4]: 29.4%; cytotoxicity at 33.33 µM [4]: 30.3%; cytotoxicity at 100 µM [4]: 32.1%
CC(=O)Nc1ccc(S(=O)(=O)Nc2nnc(S(=O)(=O)NC(=O)c3ccccc3)s2)cc1 [Compound 6a],26.5,26.8,28.2,29.9,30.1,32.2,33.6,35,35.2,35.4,30.5,32.2,32.9,33.6,35.6,36,38.2,38.9,40.9,31.6,cytotoxicity at 0.005 µM [4]: 26%; cytotoxicity at 0.015 µM [4]: 27.2%; cytotoxicity at 0.045 µM [4]: 28%; cytotoxicity at 0.13 µM [4]: 28.6%; cytotoxicity at 0.41 µM [4]: 29.8%; cytotoxicity at 1.23 µM [4]: 30.4%; cytotoxicity at 3.7 µM [4]: 30.9%; cytotoxicity at 11.11 µM [4]: 31.3%; cytotoxicity at 33.33 µM [4]: 32.1%; cytotoxicity at 100 µM [4]: 32.7%
CC(=O)Nc1ccc(S(=O)(=O)Nc2nnc(S(=O)(=O)NC(=O)c3ccc(N)cc3)s2)cc1 [Compound 6c],30.5,32,32.9,33.6,34.8,35.7,36.6,37.8,38.2,38.8,30.4,33.6,34.1,34.8,34.9,35.1,36.5,38.3,39,32.8,cytotoxicity at 0.005 µM [4]: 33.1%; cytotoxicity at 0.015 µM [4]: 33.3%; cytotoxicity at 0.045 µM [4]: 34.1%; cytotoxicity at 0.13 µM [4]: 35%; cytotoxicity at 0.41 µM [4]: 35.4%; cytotoxicity at 1.23 µM [4]: 36.7%; cytotoxicity at 3.7 µM [4]: 37.1%; cytotoxicity at 11.11 µM [4]: 37.9%; cytotoxicity at 33.33 µM [4]: 38.2%; cytotoxicity at 100 µM [4]: 39.4%
